The target in this test is TrkA (Homo sapiens, UniProt P04629). The test is described as follows: TrkA LanthaScreen Eu Kinase Binding Assay. The following applies: averaged IC50 values, read-out: TrkA Enzyme IC50. Details: 6HIS tagged cytoplasmic domain from Invitrogen, Cat. No. PV3144; purchased Invitrogen PV3144. As for the experimental part: TrkA binding activity was determined in a TrkA LanthaScreen™ Eu Kinase Binding Assay. 5 nM His-tagged recombinant human TrkA (6HIS tagged cytoplasmic domain from Invitrogen, Cat. No. PV3144) was incubated with 4 nM Alexa-Fluor® Tracer 236 (Invitrogen Cat. No. PV5592), 2 nM biotinylated anti-His (Invitrogen Cat. No. PV6090), and 2 nM europium-labeled Streptavidin (Invitrogen Cat. No. PV5899), in buffer (25 mM MOPS, pH 7.5, 5 mM MgCl2, 0.005% Triton X-100). Three fold serial dilutions of compounds of the invention in DMSO were added to a final percentage of 2% DMSO. After 60-minute incubation at 22° C., the reaction was measured using the EnVision mutlimode plate reader (PerkinElmer) via TR-FRET dual wavelength detection at […]. The percent of control was calculated using a ratiometric emission factor. The IC50 values were determined by fitting a four parameter model to the percent of control data.
TrkA, sequence (P04629 440-796 limits assumed): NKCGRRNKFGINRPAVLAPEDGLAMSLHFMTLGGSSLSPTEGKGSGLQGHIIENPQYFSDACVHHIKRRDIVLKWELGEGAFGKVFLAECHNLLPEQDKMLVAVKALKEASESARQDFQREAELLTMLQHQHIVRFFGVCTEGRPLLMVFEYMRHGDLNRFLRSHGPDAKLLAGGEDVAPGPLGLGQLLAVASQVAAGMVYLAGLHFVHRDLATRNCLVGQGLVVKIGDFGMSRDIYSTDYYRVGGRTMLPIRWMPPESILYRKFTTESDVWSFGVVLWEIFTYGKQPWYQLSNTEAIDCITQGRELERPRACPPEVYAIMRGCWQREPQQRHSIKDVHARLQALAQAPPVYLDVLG
Table A provides averaged IC50 values for compounds of the invention when tested in the assay of Example A, where A represents an averaged IC50 value <100 nM; and B represents an averaged IC50 value from 100 to 1,000 nM.
Consider `COCCN1C[C@@H](NC(=O)Nc2cc(Br)cnc2-c2ccccc2)[C@H](c2ccc(F)c(F)c2)C1` [Example 6, 1-(5-bromo-2-phenylpyridin-3-yl)-3-((3S,4R)-4-(3,4-difluorophenyl)-1-(2-methoxyethyl)pyrrolidin-3-yl)urea], for which the IC50 is less than 100 nM. With `COCCN1C[C@@H](NC(=O)Nc2nc(C)nn2-c2ccccc2)[C@H](c2ccc(F)c(F)c2)C1` [Example 53, 1-((3S,4R)-4-(3,4-difluorophenyl)-1-(2-methoxyethyl)pyrrolidin-3-yl)-3-(3-methyl-1-phenyl-1H-1,2,4-triazol-5-yl)urea] the figure was less than 100 nM; with `COCCN1C[C@@H](NC(=O)Nc2ccc(-c3cccc(S(C)(=O)=O)c3)nc2C)[C@H](c2ccc(F)c(F)c2)C1` [Example 18, 1-((3S,4R)-4-(3,4-difluorophenyl)-1-(2-methoxyethyl)pyrrolidin-3-yl)-3-(2-methyl-6-(3-(methylsulfonyl)phenyl)pyridin-3-yl)urea], 100 to 1000 nM; with `COCCN1C[C@@H](NC(=O)Nc2oc(C(C)C)nc2-c2ccccc2)[C@H](c2ccccc2)C1` [Example 44, 11-(2-isopropyl-4-phenyloxazol-5-yl)-3-((3S,4R)-1-(2-methoxyethyl)-4-phenylpyrrolidin-3-yl)urea], 100 to 1000 nM. With `COCCN1C[C@@H](NC(=O)Nc2cc(S(C)(=O)=O)cnc2-c2ccccc2)[C@H](c2ccccc2)C1` (relative stereo) [Example 4, 1-(trans-1-(2-methoxyethyl)-4-phenylpyrrolidin-3-yl)-3-(5-(methylsulfonyl)-2-phenylpyridin-3-yl)urea] the figure was 100 to 1000 nM; with `COCCN1C[C@@H](NC(=O)Nc2cc(Cl)cnc2-c2ccccc2)[C@H](c2ccccc2)C1` (relative stereo) [Example 2, 1-(5-chloro-2-phenylpyridin-3-yl)-3-(trans-1-(2-methoxyethyl)-4-phenylpyrrolidin-3-yl)urea], less than 100 nM. Consider `COCCN1C[C@@H](NC(=O)Nc2cc(S(C)(=O)=O)cnc2-c2ccccc2)[C@H](c2ccc(F)c(F)c2)C1` [Example 13, 1-((3S,4R)-4-(3,4-difluorophenyl)-1-(2-methoxyethyl)pyrrolidin-3-yl)-3-(5-(methylsulfonyl)-2-phenylpyridin-3-yl)urea], for which the IC50 is less than 100 nM. With `COCCN1C[C@@H](NC(=O)Nc2ccc(C#N)nc2-c2ccccc2)[C@H](c2ccc(F)c(F)c2)C1` [Example 24, 1-(6-cyano-2-phenylpyridin-3-yl)-3-((3S,4R)-4-(3,4-difluorophenyl)-1-(2-methoxyethyl)pyrrolidin-3-yl)urea], the IC50 is less than 100 nM. With `COCCN1C[C@@H](NC(=O)Nc2c(-c3ccccc3)noc2C)[C@H](c2ccccc2)C1` (relative stereo) [Example 37, 1-((trans)-1-(2-methoxyethyl)-4-phenylpyrrolidin-3-yl)-3-(5-methyl-3-phenylisoxazol-4-yl)urea] the figure was 100 to 1000 nM; with `COCCN1C[C@@H](NC(=O)Nc2cc(C)cnc2-c2ccccc2)[C@H](c2ccc(F)c(F)c2)C1` [Example 30, 1-((3S,4R)-4-(3,4-difluorophenyl)-1-(2-methoxyethyl)pyrrolidin-3-yl)-3-(5-methyl-2-phenylpyridin-3-yl)urea], less than 100 nM; with `COCCN1C[C@@H](NC(=O)Nc2cc(=O)n(CC(F)(F)F)nc2-c2ccccc2)[C@H](c2ccc(F)c(F)c2)C1` [Example 35, 1-((3S,4R)-4-(3,4-difluorophenyl)-1-(2-methoxyethyl)pyrrolidin-3-yl)-3-(6-oxo-3-phenyl-1-(2,2,2-trifluoroethyl)-1,6-dihydropyridazin-4-yl)urea], 100 to 1000 nM.

On to `COCCN1C[C@@H](NC(=O)Nc2cc(-c3ccccc3)cnc2-c2ccccc2)[C@H](c2ccccc2)C1` [Example 7, 1-(2,5-diphenylpyridin-3-yl)-3-((3S,4R)-1-(2-methoxyethyl)-4-phenylpyrrolidin-3-yl)urea], for which the IC50 is less than 100 nM. With `COCCN1C[C@@H](NC(=O)Nc2cccnc2-c2ccccc2)[C@H](c2ccc(F)c(F)c2)C1` [Example 19, 1-((3S,4R)-4-(3,4-difluorophenyl)-1-(2-methoxyethyl)pyrrolidin-3-yl)-3-(2-phenylpyridin-3-yl)urea] the figure was less than 100 nM; with `COCCN1C[C@@H](NC(=O)Nc2sc(-c3cnn(C)c3)nc2-c2ccccc2)[C@H](c2ccc(F)c(F)c2)C1` [Example 56, 1-((3S,4R)-4-(3,4-difluorophenyl)-1-(2-methoxyethyl)pyrrolidin-3-yl)-3-(2-(1-methyl-1H-pyrazol-4-yl)-4-phenylthiazol-5-yl)urea di(trifluoroacetate)], less than 100 nM. Then `COCCN1C[C@@H](NC(=O)Nc2oc(-c3ccccc3)nc2C)[C@H](c2ccccc2)C1` [Example 42, 1-((3S,4R)-1-(2-methoxyethyl)-4-phenylpyrrolidin-3-yl)-3-(4-methyl-2-phenyloxazol-5-yl)urea], with 100 to 1000 nM. With `COCCN1C[C@@H](NC(=O)Nc2oc(C(C)C)nc2-c2ccccc2)[C@H](c2ccc(F)c(F)c2)C1` [Example 43, 1-((3S,4R)-4-(3,4-difluorophenyl)-1-(2-methoxyethyl)pyrrolidin-3-yl)-3-(2-isopropyl-4-phenyloxazol-5-yl)urea] the figure was less than 100 nM; with `COCCN1C[C@@H](NC(=O)Nc2cc(Br)cnc2-c2ccccc2)[C@H](c2ccccc2)C1` (relative stereo) [Example 3], less than 100 nM; with `COCCN1C[C@@H](NC(=O)Nc2cc(-c3cccnc3)cnc2C)[C@H](c2ccc(F)c(F)c2)C1` [Example 15, 1-((3S,4R)-4-(3,4-difluorophenyl)-1-(2-methoxyethyl)pyrrolidin-3-yl)-3-(6-methyl-[3,3′-bipyridin]-5-yl)urea], 100 to 1000 nM. For the molecule `COCCN1C[C@@H](NC(=O)Nc2ccc(Cl)nc2-c2ccccc2)[C@H](c2ccc(F)c(F)c2)C1` [Example 21, 1-(6-chloro-2-phenylpyridin-3-yl)-3-((3S,4R)-4-(3,4-difluorophenyl)-1-(2-methoxyethyl)pyrrolidin-3-yl)urea], the IC50 is less than 100 nM.

Consider `COCCN1C[C@@H](NC(=O)Nc2c(-c3ccccc3)nsc2C(N)=O)[C@H](c2ccc(F)c(F)c2)C1` [Example 36, 4-(3-((3S,4R)-4-(3,4-difluorophenyl)-1-(2-methoxyethyl)pyrrolidin-3-yl)ureido)-3-phenylisothiazole-5-carboxamide], for which the 50% inhibitory concentration (IC50) is less than 100 nM. With `COCCN1C[C@@H](NC(=O)Nc2cncnc2-c2ccccc2)[C@H](c2ccc(F)c(F)c2)C1` [Example 23, 1-((3S,4R)-4-(3,4-difluorophenyl)-1-(2-methoxyethyl)pyrrolidin-3-yl)-3-(4-phenylpyrimidin-5-yl)urea], the IC50 was less than 100 nM. Then `COCCN1C[C@@H](NC(=O)Nc2cccnc2-c2ccccc2)[C@H](c2ccccc2)C1` (relative stereo) [Example 1, 1-(trans-1-(2-methoxyethyl)-4-phenylpyrrolidin-3-yl)-3-(2-phenylpyridin-3-yl)urea], with less than 100 nM; and `COCCN1C[C@@H](NC(=O)Nc2sc(C(C)C)nc2-c2ccccc2)[C@H](c2ccc(F)c(F)c2)C1` [Example 47, 1-((3S,4R)-4-(3,4-difluorophenyl)-1-(2-methoxyethyl)pyrrolidin-3-yl)-3-(2-isopropyl-4-phenylthiazol-5-yl)urea], with less than 100 nM; and `COCCOc1ccc(NC(=O)N[C@@H]2CN(CCOC)C[C@H]2c2ccc(F)c(F)c2)c(-c2ccccc2)n1` [Example 27, 1-((3S,4R)-4-(3,4-difluorophenyl)-1-(2-methoxyethyl)pyrrolidin-3-yl)-3-(6-(2-methoxyethoxy)-2-phenylpyridin-3-yl)urea], with less than 100 nM. Then `COCCN1C[C@@H](NC(=O)Nc2ccc(C)nc2-c2ccccc2)[C@H](c2cc(F)cc(F)c2)C1` [Example 31, 1-((3S,4R)-4-(3,5-difluorophenyl)-1-(2-methoxyethyl)pyrrolidin-3-yl)-3-(6-methyl-2-phenylpyridin-3-yl)urea], with less than 100 nM; and `COCCN1C[C@@H](NC(=O)Nc2sc(C(=O)N(C)C)nc2-c2ccccc2)[C@H](c2ccc(F)c(F)c2)C1` [Example 52, 5-(3-((3S,4R)-4-(3,4-difluorophenyl)-1-(2-methoxyethyl)pyrrolidin-3-yl)ureido)-N,N-dimethyl-4-phenylthiazole-2-carboxamide], with 100 to 1000 nM; and `COCCN1C[C@@H](NC(=O)Nc2sc(-c3ccccc3)nc2C)[C@H](c2ccc(F)c(F)c2)C1` [Example 45, 11-((3S,4R)-4-(3,4-difluorophenyl)-1-(2-methoxyethyl)pyrrolidin-3-yl)-3-(4-methyl-2-phenylthiazol-5-yl)urea], with less than 100 nM.

As for `COCCN1C[C@@H](NC(=O)Nc2sc(-c3ccccc3)nc2C)[C@H](c2ccccc2)C1` [Example 46, 1-((3S,4R)-1-(2-methoxyethyl)-4-phenylpyrrolidin-3-yl)-3-(4-methyl-2-phenylthiazol-5-yl)urea], the IC50 is less than 100 nM. With `COCCN1C[C@@H](NC(=O)Nc2cc(-c3ccccc3)cnc2C)[C@H](c2ccc(F)c(F)c2)C1` [Example 10, 1-((3S,4R)-4-(3,4-difluorophenyl)-1-(2-methoxyethyl)pyrrolidin-3-yl)-3-(2-methyl-5-phenylpyridin-3-yl)urea] the figure was 100 to 1000 nM.
